From patent US6294527A, “Cephem compounds” (Zenyaku Kogyo Kabushiki Kaisha, priority 1996, dated 2001) come the findings set out here.

≈ marks a conversion by molar mass, not a printed value.

Experiment [1] relates to vancomycin-resistant enterococci (E. faecalis NCTC-12201). As to the kind of experiment: Agar plate dilution MIC, vancomycin-resistant enterococci E. faecalis NCTC-12201. In kind it is cell-based. The following applies: Enterococcus faecalis, NCTC12201; agar plate dilution; inoculum 10^6 CFU/ml; vancomycin-resistant; read-out: MIC E. faecalis NCTC-12201. On the procedure:
(§1) Antibacterial test was performed in substantial accordance with agar plate dilution method based on Standard method of The Japan Society of Chemotherapy to determine minimum inhibitory concentration (MIC) of the respective test compounds against Staphylococcus aureus (S. aureus FDA 209P) and vancomycin-resistant enterococci (E. faecalis NCTC-12201). Also determined was MIC80 on clinically separated strains (27 strains) of MRSA. The inoculated amount was 10^6 CFU/ml and flomoxef (FMOX) and vancomycin (VCM) were used as controls.

For experiment [2], the system named is Staphylococcus aureus (S. aureus FDA 209P). As to the kind of experiment: Agar plate dilution MIC, Staphylococcus aureus FDA 209P. It is filed as cell-based. Conditions: FDA209P, agar plate dilution, inoculum 10^6 CFU/ml, read-out: MIC S. aureus FDA 209P. On the procedure: as §1

Regarding `COc1ccc2c(=O)cc(SC=CC3=C(C(=O)O)N4C(=O)[C@@H](NC(=O)Cc5cccs5)[C@H]4SC3)sc2c1` [compound 4, 7-[2-(2-thienyl)acetamide]-3-[2-(7-methoxy-4-oxo-4H-1-benzothiopyran-2-yl)thiovinyl]-3-cephem-4-carboxylic acid], the MIC (usually the lowest concentration that inhibits growth of the organism) turned out to be 1.56 µg/mL (≈ 2.72 µM) in experiment [1] and 0.1 µg/mL (≈ 0.175 µM) in experiment [2].
